# Source: patent US20100227921A1, “AMINO ACID AND PEPTIDE CARBAMATE PRODRUGS OF […] USES THEREOF” (SHIRE LLC, priority 2009, published 2010)
# Where “and” joins values, the source holds several entries; their conditions need not be identical. Identical values can stand only once. Like-named read-outs stand apart in the source and are kept apart here. Marks after values point to notes of the source that are not given here.
# Experiment: Comparative bioavailability after oral or intravenous administration to monkeys (plasma LC-MS-MS)
# Format: in vivo, cynomolgus monkey
# Conditions: for half-life: read-out: t½ of tapentadol valine carbamate (converted); for AUC(0-t): read-out: AUCt of tapentadol valine carbamate; for clearance: read-out: CL of tapentadol valine carbamate (converted); for Vd: read-out: Vss of tapentadol valine carbamate; for Tmax: cynomolgus
# Protocol: Test substances i.e., tapentadol and tapentadol valine carbamate were administered (either intravenously or orally) to a group of five male cynomolgus monkeys in a three way crossover design. The oral doses were given at 1 mg tapentadol base equivalents/kg while the intravenous dose was 0.5 mg/kg
# Blood samples were taken at various times after administration and submitted to analysis for the parent drug and tapentadol valine carbamate using a validated LC-MS-MS assay. Pharmacokinetic parameters derived from the plasma analytical data were determined using Win Nonlin.
# [1] = male monkey, i.v. tapentadol valine carbamate 0.5 mg tapentadol free base equiv/kg, individual animals 1-5
# [2] = male monkey, oral tapentadol valine carbamate 1 mg tapentadol free base equiv/kg, individual animals 1-5
# [3] = male, cynomolgus monkey, plasma, iv, 0.5 mg/kg, male monkey, i.v. tapentadol valine carbamate 0.5 mg tapentadol free base equiv/kg, individual animals 1-5
# [4] = male, cynomolgus monkey, plasma, iv, 0.5 mg/kg, male monkey, i.v. tapentadol valine carbamate 0.5 mg tapentadol free base equiv/kg, mean
# [5] = male, cynomolgus monkey, plasma, po, 1 mg tapentadol free base equiv/kg, male monkey, oral tapentadol valine carbamate 1 mg tapentadol free base equiv/kg, individual animals 1-5
# [6] = male, cynomolgus monkey, plasma, po, 1 mg tapentadol free base equiv/kg, male monkey, oral tapentadol valine carbamate 1 mg tapentadol free base equiv/kg, mean
compound,measurement,setting,value
"CC[C@H](c1cccc(OC(=O)N[C@H](C(=O)O)C(C)C)c1)[C@H](C)CN(C)C (racemic) [Tapentadol valine carbamate, 2-[3-(3-Dimethylamino-1-ethyl-2-methyl-propyl)-phenoxycarbonylamino]-3-methyl-butyric acid]",Plasma concentration of tapentadol valine carbamate,"male monkey, i.v. tapentadol valine carbamate 0.5 mg tapentadol free base equiv/kg, 0.25 h, individual animals 1-5",825 ng/mL and 848 ng/mL and 427 ng/mL and 672 ng/mL
same,Plasma concentration of tapentadol valine carbamate,"male monkey, i.v. tapentadol valine carbamate 0.5 mg tapentadol free base equiv/kg, 0.5 h, individual animals 1-5",119.8 ng/mL and 576 ng/mL and 620 ng/mL and 609 ng/mL and 430 ng/mL
same,Plasma concentration of tapentadol valine carbamate,"male monkey, i.v. tapentadol valine carbamate 0.5 mg tapentadol free base equiv/kg, 1 h, individual animals 1-5",205 ng/mL and 326 ng/mL and 274 ng/mL and 251 ng/mL
same,Plasma concentration of tapentadol valine carbamate,"male monkey, i.v. tapentadol valine carbamate 0.5 mg tapentadol free base equiv/kg, 2 h, individual animals 1-5",112.1 ng/mL and 115.5 ng/mL and 85.6 ng/mL and 87.7 ng/mL
same,Plasma concentration of tapentadol valine carbamate,"male monkey, i.v. tapentadol valine carbamate 0.5 mg tapentadol free base equiv/kg, 4 h, individual animals 1-5",20.0 ng/mL and 21.4 ng/mL and 12.2 ng/mL and 14.6 ng/mL
same,Plasma concentration of tapentadol valine carbamate,"male monkey, i.v. tapentadol valine carbamate 0.5 mg tapentadol free base equiv/kg, 6 h, individual animals 1-5",4.94 ng/mL and 6.10 ng/mL and 3.48 ng/mL and 4.20 ng/mL
same,Plasma concentration of tapentadol valine carbamate,"male monkey, i.v. tapentadol valine carbamate 0.5 mg tapentadol free base equiv/kg, 9 h, individual animals 1-5",1.04 ng/mL and 0.769 ng/mL and 1.89 ng/mL and 1.20 ng/mL and 1.35 ng/mL
same,AUC of tapentadol valine carbamate,[1],926 ng·h/mL and 1050 ng·h/mL and 915 ng·h/mL and 846 ng·h/mL
same,AUCt of tapentadol valine carbamate,[1],925 ng·h/mL and 1040 ng·h/mL and 912 ng·h/mL and 843 ng·h/mL
same,C0 of tapentadol valine carbamate,[1],794 ng/mL and 1020 ng/mL and 949 ng/mL and 1930 ng/mL and 1260 ng/mL
same,CL of tapentadol valine carbamate,[1],9 mL/min/kg and 7.97 mL/min/kg and 9.12 mL/min/kg and 8.18 mL/min/kg
same,Vss of tapentadol valine carbamate,[1],0.529 L/kg and 0.499 L/kg and 0.481 L/kg and 0.562 L/kg
same,t½ of tapentadol valine carbamate,[1],1.1 h
same,AUC of tapentadol valine carbamate,[2],219 ng·h/mL and 367 ng·h/mL and 368 ng·h/mL and 48 ng·h/mL and 436 ng·h/mL
same,AUCt of tapentadol valine carbamate,[2],216 ng·h/mL and 351 ng·h/mL and 358 ng·h/mL and 187 ng·h/mL and 432 ng·h/mL
same,Cmax of tapentadol valine carbamate,[2],150 ng/mL and 176 ng/mL and 153 ng/mL and 92.1 ng/mL and 249 ng/mL
same,T>50%Cmax of tapentadol valine carbamate,[2],0.5 h (4×) and 1 h
same,t½ of tapentadol valine carbamate,[2],3.35 h and 2.48 h and 1.86 h and 2.88 h
same,T>50%Cmax of tapentadol valine carbamate,"male monkey, oral tapentadol valine carbamate 1 mg tapentadol free base equiv/kg, median",0.5^a h
same,Plasma concentration of tapentadol valine carbamate,"male monkey, oral tapentadol valine carbamate 10 mg tapentadol free base equiv/kg, 0.5 h, individual animals 1-5",150 ng/mL and 176 ng/mL and 153 ng/mL and 34.7 ng/mL and 249 ng/mL
same,Plasma concentration of tapentadol valine carbamate,"male monkey, oral tapentadol valine carbamate 10 mg tapentadol free base equiv/kg, 0.5 h, mean",153 ng/mL
same,Plasma concentration of tapentadol valine carbamate,"male monkey, oral tapentadol valine carbamate 10 mg tapentadol free base equiv/kg, 1 h, individual animals 1-5",96.1 ng/mL and 126 ng/mL and 127 ng/mL and 92.1 ng/mL and 227 ng/mL
same,Plasma concentration of tapentadol valine carbamate,"male monkey, oral tapentadol valine carbamate 10 mg tapentadol free base equiv/kg, 1 h, mean",134 ng/mL
same,Plasma concentration of tapentadol valine carbamate,"male monkey, oral tapentadol valine carbamate 10 mg tapentadol free base equiv/kg, 2 h, individual animals 1-5",31.8 ng/mL and 71.3 ng/mL and 58.9 ng/mL and 49.4 ng/mL and 87.9 ng/mL
same,Plasma concentration of tapentadol valine carbamate,"male monkey, oral tapentadol valine carbamate 10 mg tapentadol free base equiv/kg, 2 h, mean",59.9 ng/mL
same,Plasma concentration of tapentadol valine carbamate,"male monkey, oral tapentadol valine carbamate 10 mg tapentadol free base equiv/kg, 3 h, individual animals 1-5",10.7 ng/mL and 23.1 ng/mL and 25.2 ng/mL and 16.4 ng/mL and 22.1 ng/mL
same,Plasma concentration of tapentadol valine carbamate,"male monkey, oral tapentadol valine carbamate 10 mg tapentadol free base equiv/kg, 3 h, mean",19.5 ng/mL
same,Plasma concentration of tapentadol valine carbamate,"male monkey, oral tapentadol valine carbamate 10 mg tapentadol free base equiv/kg, 4 h, individual animals 1-5",5.49 ng/mL and 15.1 ng/mL and 25.7 ng/mL and 12.7 ng/mL and 6.89 ng/mL
same,Plasma concentration of tapentadol valine carbamate,"male monkey, oral tapentadol valine carbamate 10 mg tapentadol free base equiv/kg, 4 h, mean",13.2 ng/mL
same,Plasma concentration of tapentadol valine carbamate,"male monkey, oral tapentadol valine carbamate 10 mg tapentadol free base equiv/kg, 6 h, individual animals 1-5",4.60 ng/mL and 10.0 ng/mL and 17.0 ng/mL and 4.51 ng/mL and 3.93 ng/mL
same,Plasma concentration of tapentadol valine carbamate,"male monkey, oral tapentadol valine carbamate 10 mg tapentadol free base equiv/kg, 6 h, mean",8.01 ng/mL
same,Plasma concentration of tapentadol valine carbamate,"male monkey, oral tapentadol valine carbamate 10 mg tapentadol free base equiv/kg, 9 h, individual animals 1-5",1.93 ng/mL and 7.34 ng/mL and 5.61 ng/mL and 1.11 ng/mL and 1.86 ng/mL
same,Plasma concentration of tapentadol valine carbamate,"male monkey, oral tapentadol valine carbamate 10 mg tapentadol free base equiv/kg, 9 h, mean",3.57 ng/mL
same,Plasma concentration of tapentadol valine carbamate,"male monkey, oral tapentadol valine carbamate 10 mg tapentadol free base equiv/kg, 12 h, individual animals 1-5",0.741 ng/mL and 2.97 ng/mL and 3.04 ng/mL and 0.716 ng/mL and 0.929 ng/mL
same,Plasma concentration of tapentadol valine carbamate,"male monkey, oral tapentadol valine carbamate 10 mg tapentadol free base equiv/kg, 12 h, mean",1.68 ng/mL
same,concentration at 0.083 h,"male, cynomolgus monkey, plasma, iv, 0.5 mg tapentadol free base equiv/kg, male monkey, i.v. tapentadol valine carbamate 0.5 mg tapentadol free base equiv/kg, 0.083 h, mean",969 ng/mL
same,concentration at 0.25 h,"male, cynomolgus monkey, plasma, iv, 0.5 mg tapentadol free base equiv/kg, male monkey, i.v. tapentadol valine carbamate 0.5 mg tapentadol free base equiv/kg, 0.25 h, mean",711 ng/mL
same,concentration at 0.5 h,"male, cynomolgus monkey, plasma, iv, 0.5 mg tapentadol free base equiv/kg, male monkey, i.v. tapentadol valine carbamate 0.5 mg tapentadol free base equiv/kg, 0.5 h, mean",471 ng/mL
same,concentration at 1 h,"male, cynomolgus monkey, plasma, iv, 0.5 mg tapentadol free base equiv/kg, male monkey, i.v. tapentadol valine carbamate 0.5 mg tapentadol free base equiv/kg, 1 h, mean",255 ng/mL
same,concentration at 2 h,"male, cynomolgus monkey, plasma, iv, 0.5 mg tapentadol free base equiv/kg, male monkey, i.v. tapentadol valine carbamate 0.5 mg tapentadol free base equiv/kg, 2 h, mean",98.6 ng/mL
same,concentration at 4 h,"male, cynomolgus monkey, plasma, iv, 0.5 mg tapentadol free base equiv/kg, male monkey, i.v. tapentadol valine carbamate 0.5 mg tapentadol free base equiv/kg, 4 h, mean",16 ng/mL
same,concentration at 6 h,"male, cynomolgus monkey, plasma, iv, 0.5 mg tapentadol free base equiv/kg, male monkey, i.v. tapentadol valine carbamate 0.5 mg tapentadol free base equiv/kg, 6 h, mean",4.39 ng/mL
same,concentration at 9 h,"male, cynomolgus monkey, plasma, iv, 0.5 mg tapentadol free base equiv/kg, male monkey, i.v. tapentadol valine carbamate 0.5 mg tapentadol free base equiv/kg, 9 h, mean",1.25 ng/mL
same,half-life,"male, cynomolgus monkey, plasma, iv, 0.5 mg/kg, male monkey, i.v. tapentadol valine carbamate 0.5 mg tapentadol free base equiv/kg, calculated as ln2/mean k",1.4 h
same,AUC,[3],680 ng·h/mL
same,AUC(0-t),[3],678 ng·h/mL
same,clearance,[3],12.2 mL/min/kg
same,Vd,[3],0.75 L/kg
same,half-life,[3],1.5 h
same,AUC,[4],883 ng·h/mL
same,C0,[4],1190 ng/mL
same,AUC(0-t),[4],880 ng·h/mL
same,clearance,[4],9.63 mL/min/kg
same,Vd,[4],0.564 L/kg
same,half-life,"male, cynomolgus monkey, plasma, po, 1 mg tapentadol free base equiv/kg, male monkey, oral tapentadol valine carbamate 1 mg tapentadol free base equiv/kg, calculated as ln2/mean k",2.47 h
same,half-life,[5],2.28 h
same,AUC,[6],316 ng·h/mL
same,Cmax,[6],164 ng/mL
same,AUC(0-t),[6],309 ng·h/mL
same,Tmax,[5],0.5 h
same,Tmax,"male, cynomolgus monkey, plasma, po, 1 mg tapentadol free base equiv/kg, male monkey, oral tapentadol valine carbamate 1 mg tapentadol free base equiv/kg, median",0.5 h
same,prodrug absorbed after oral administration,"monkey, comparison of AUC after oral (Table 13) and intravenous dosing (Table 12)",at least 36%
